# Results from the supplement of paper PMC4932681.
# Columns and labels:
# T-47D Tam1 [1] = test: relative IC50 (midpoint of fitted logistic curve, plateau may be below 50% inhibition; CellTiter-Glo viability); higher = less potent; details: 4-OH-tamoxifen in medium 1 µM; 72 h
# Procedure: (§1)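 FIMM FO2B library drugs were plated at 5 concentrations spanning a 10,000-fold range in 384-well plates. Cells were incubated for 72 h at 37 °C and viability was read by CellTiter-Glo, normalised to DMSO (0% inhibition) and 100 µM benzethonium chloride (100% inhibition). IC50 values come from logistic dose-response fits (Breeze pipeline). Tamoxifen-resistant lines and the 'in 1µM tamoxifen' parental arms were tested in medium with 1 µM 4-OH-tamoxifen.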
# MCF-7 Tam1 [2] = test: as above; details: 4-OH-tamoxifen in medium 1 µM; 72 h
# Procedure: as §1
# BT-474 Tam1 [3] = test: as above; details: 4-OH-tamoxifen in medium 1 µM; 72 h
# Procedure: as §1
# T-47D [4] = test: as above; details: 72 h
# Procedure: as §1
# BT-474 [5] = test: as above; details: 72 h
# Procedure: as §1
# ZR-75-1 [6] = test: drug sensitivity score (DSS) (DSS (dimensionless)); higher = more sensitive; extreme values may be limits of the assay; details: 72 h
# Procedure: (§2)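 FIMM FO2B library drugs were tested at 5 concentrations (10,000-fold range) for 72 h, with CellTiter-Glo viability normalised to DMSO and benzethonium chloride controls. The Drug Sensitivity Score (DSS) is computed from the fitted logistic dose-response curve (area-based; 0 = inactive). Resistant lines and the 'in 1µM tamoxifen' arms were tested in 1 µM 4-OH-tamoxifen.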
# ZR-75-1 Tam2 [7] = test: as above; details: 4-OH-tamoxifen in medium 1 µM; 72 h
# Procedure: as §2
# MCF-7 [8] = test: as above; details: 72 h
# Procedure: as §2
# T-47D Tam1 [9] = test: as above; details: 4-OH-tamoxifen in medium 1 µM; 72 h
# Procedure: as §2
# MCF-7 Tam1 [10] = test: as above; details: 4-OH-tamoxifen in medium 1 µM; 72 h
# Procedure: as §2
# BT-474 Tam1 [11] = test: as above; details: 4-OH-tamoxifen in medium 1 µM; 72 h
# Procedure: as §2
# T-47D [12] = test: as above; details: 72 h
# Procedure: as §2
# BT-474 [13] = test: as above; details: 72 h
# Procedure: as §2
# T-47D Tam2 = test: as above; details: 4-OH-tamoxifen in medium 1 µM; 72 h
# Procedure: as §2
# ZR-75-1 Tam1 [14] = test: as above; details: 4-OH-tamoxifen in medium 1 µM; 72 h
# Procedure: as §2
# BT-474 Tam2 [15] = test: as above; details: 4-OH-tamoxifen in medium 1 µM; 72 h
# Procedure: as §2
# ZR-75-1 [16] = test: relative IC50 (midpoint of fitted logistic curve, plateau may be below 50% inhibition; CellTiter-Glo viability); higher = less potent; details: 72 h
# Procedure: as §1
# MCF-7 [17] = test: as above; details: 72 h
# Procedure: as §1
# BT-474 Tam2 [18] = test: as above; details: 4-OH-tamoxifen in medium 1 µM; 72 h
# Procedure: as §1
# ZR-75-1 Tam1 [19] = test: as above; details: 4-OH-tamoxifen in medium 1 µM; 72 h
# Procedure: as §1
# ZR-75-1 Tam2 [20] = test: as above; details: 4-OH-tamoxifen in medium 1 µM; 72 h
# Procedure: as §1
Structure (SMILES),relative IC50 (T-47D Tam1 [1]),relative IC50 (MCF-7 Tam1 [2]),relative IC50 (BT-474 Tam1 [3]),relative IC50 (T-47D [4]; 4-OH-tamoxifen in medium 0 µM),relative IC50 (T-47D [4]; 4-OH-tamoxifen in medium 1 µM),relative IC50 (BT-474 [5]; 4-OH-tamoxifen in medium 0 µM),drug sensitivity score (ZR-75-1 [6]; 4-OH-tamoxifen in medium 0 µM),drug sensitivity score (ZR-75-1 [6]; 4-OH-tamoxifen in medium 1 µM),drug sensitivity score (ZR-75-1 Tam2 [7]),drug sensitivity score (MCF-7 [8]; 4-OH-tamoxifen in medium 0 µM),drug sensitivity score (MCF-7 [8]; 4-OH-tamoxifen in medium 1 µM),drug sensitivity score (T-47D Tam1 [9]),drug sensitivity score (MCF-7 Tam1 [10]),drug sensitivity score (BT-474 Tam1 [11]),drug sensitivity score (T-47D [12]; 4-OH-tamoxifen in medium 0 µM),drug sensitivity score (T-47D [12]; 4-OH-tamoxifen in medium 1 µM),drug sensitivity score (BT-474 [13]; 4-OH-tamoxifen in medium 0 µM),drug sensitivity score (BT-474 [13]; 4-OH-tamoxifen in medium 1 µM),drug sensitivity score (T-47D Tam2),drug sensitivity score (ZR-75-1 Tam1 [14]),drug sensitivity score (BT-474 Tam2 [15]),relative IC50 (ZR-75-1 [16]; 4-OH-tamoxifen in medium 0 µM),relative IC50 (MCF-7 [17]; 4-OH-tamoxifen in medium 0 µM),relative IC50 (MCF-7 [17]; 4-OH-tamoxifen in medium 1 µM),relative IC50 (BT-474 Tam2 [18]),relative IC50 (ZR-75-1 [16]; 4-OH-tamoxifen in medium 1 µM),relative IC50 (ZR-75-1 Tam1 [19]),relative IC50 (ZR-75-1 Tam2 [20]),relative IC50 (BT-474 [5]; 4-OH-tamoxifen in medium 1 µM)
CN1CCc2c(c3ccccc3n2Cc2ccc(C(=O)NO)cc2)C1 [Tubastatin A],> 10000 nM,> 10 µM,3120 nM,> 10 µM,> 10 µM,> 10000 nM,0.27,0.715,0.301,0,0.884,0,0,1.77,0,0,0,0.725,0,0.0626,0.145,–,–,–,–,–,–,–,–
C[C@]1(O)C[C@@H](c2nc(-c3ccc4ccc(-c5ccccc5)nc4c3)c3c(N)nccn32)C1 [Linsitinib (OSI-906)],1820 nM,1.17 µM,> 10000 nM,–,1.87 µM,> 10000 nM,0,1.21,0.681,4.58,5.68,7.18,3.94,0,2.48,2.45,0,0.462,1.19,0.0832,0,> 10 µM,1700 nM,1620 nM,> 10 µM,–,–,–,–
N[C@@H](CSC(c1ccccc1)(c1ccccc1)c1ccccc1)C(=O)O [S-trityl-L-cysteine],> 40000 nM,> 40 µM,–,–,> 40 µM,40000 nM,1.65,0,0.627,0,1.69,0,0,1.68,0.0068,0,0,1.41,0.0046,0,0,–,> 40000 nM,–,> 40 µM,> 40 µM,> 40 µM,–,–
O=c1[nH]c(=O)n([C@H]2C[C@H](O)[C@@H](CO)O2)cc1F [Floxuridine],1390 nM,> 10 µM,> 10000 nM,–,> 10 µM,2410 nM,6.61,0.31,4.86,0.48,0,5.88,0,0,1.05,0,1.78,1.44,1.26,0.801,0,–,–,> 10000 nM,> 10 µM,–,–,–,–
C1CN1c1nc(N2CC2)nc(N2CC2)n1 [Triethylenemelamine],–,> 10 µM,> 10000 nM,> 10 µM,> 10 µM,> 10000 nM,0,0,0,0,0,0.0501,0,0,0,0,0,0,0.12,0,0,> 10 µM,> 10000 nM,> 10000 nM,> 10 µM,> 10 µM,> 10 µM,> 10000 nM,> 10000 nM
CO[C@@]12[C@H](COC(N)=O)C3=C(C(=O)C(C)=C(N)C3=O)N1C[C@@H]1N[C@@H]12 [Mitomycin C],3570 nM,> 10 µM,> 10000 nM,–,> 10 µM,> 10000 nM,0.734,0.75,1.28,0.369,0.228,1.35,0,0,0.988,0,0,0,0.0558,1.75,0,–,–,–,> 10 µM,–,–,–,> 10000 nM
"CN(C)C/C=C/C(=O)Nc1cc2c(Nc3ccc(F)c(Cl)c3)ncnc2cc1O[C@H]1CCOC1 [Afatinib (BIBW2992, Tovok)]",–,> 1 µM,12.4 nM,> 1 µM,> 1 µM,25.7 nM,0,0,0,0,0.328,1.83,0,21.9,0,0,15.3,20.5,0.583,0,21.8,> 1 µM,> 1000 nM,–,0.0131 µM,> 1 µM,> 1 µM,> 1000 nM,15.8 nM
COc1cc(F)c(F)c(Nc2ccc(I)cc2F)c1NS(=O)(=O)C1(C[C@H](O)CO)CC1 [Refametinib (RDEA119)],335 nM,0.389 µM,571 nM,–,–,> 10000 nM,0.912,0,0,3.75,3.88,4.09,3.77,3.68,1.6,0.324,0,6.44,1.2,0,0.629,–,1410 nM,1080 nM,–,> 10 µM,–,–,700 nM
CN(C)CCN1C(=O)c2cccc3cc(N)cc(c23)C1=O [Amonafide],> 10000 nM,> 10 µM,> 10000 nM,–,> 10 µM,> 10000 nM,1.49,0.169,0.594,2.63,0.126,0,0,0,0.496,0,0,0,0,0.0369,0,3.51 µM,3260 nM,–,> 10 µM,–,–,–,> 10000 nM
C[C@@H]1C[C@H]2[C@@H]3CCC4=CC(=O)C=C[C@]4(C)[C@@]3(F)[C@@H](O)C[C@]2(C)[C@@]1(O)C(=O)CO [Dexamethasone  (Decadron)],> 10000 nM,> 10 µM,–,> 10 µM,> 10 µM,> 10000 nM,0,0,0.209,0,1.88,0,0,0,0,0,0,0,0,0,0,> 10 µM,> 10000 nM,–,> 10 µM,> 10 µM,> 10 µM,–,> 10000 nM
O=C1c2c(O)ccc(O)c2C(=O)c2c(NCCNCCO)ccc(NCCNCCO)c21 [Mitoxantrone],36.8 nM,> 1 µM,> 1000 nM,–,> 1 µM,> 1000 nM,3.03,2.35,4.66,0,0,7.08,0,0,2.79,0,0,0,1.21,1.67,0,–,> 1000 nM,> 1000 nM,> 1 µM,–,–,–,> 1000 nM
Cc1ccc(Nc2nccc(N(C)c3ccc4c(C)n(C)nc4c3)n2)cc1S(N)(=O)=O [Pazopanib],> 10000 nM,> 10 µM,–,–,> 10 µM,> 10000 nM,0,0,0.0921,0,0.177,0,0,0.0636,0.231,0,0,0,0.821,0,0,> 10 µM,> 10000 nM,–,> 10 µM,–,> 10 µM,–,> 10000 nM
Nc1nc(Cl)nc2c1ncn2[C@@H]1O[C@H](CO)[C@@H](O)[C@@H]1F [Clofarabine],616 nM,> 10 µM,> 10000 nM,4.1 µM,–,> 10000 nM,0.522,0.104,0.782,4.41,2.44,5.4,0,0,1.21,0.982,0,0,1.77,1.26,0,–,490 nM,–,> 10 µM,–,–,–,> 10000 nM
C=CC(=O)N1CCC[C@@H](n2nc(-c3ccc(Oc4ccccc4)cc3)c3c(N)ncnc32)C1,–,> 1 µM,2.12 nM,> 1 µM,> 1 µM,13.4 nM,0,0,0,0,2.36,2.76,0,31.9,0,0,18.1,26.2,0.549,0,29,> 1 µM,> 1000 nM,–,0.0034 µM,> 1 µM,> 1 µM,> 1000 nM,5.56 nM
CC(C)(C)c1cc(NC(=O)Nc2ccc(-c3cn4c(n3)sc3cc(OCCN5CCOCC5)ccc34)cc2)no1 [Quizartinib (AC220)],–,> 1 µM,> 1000 nM,–,> 1 µM,> 1000 nM,0,0,0,0,0,0,0,0,0,0,0,0,0.279,0,0,> 1 µM,> 1000 nM,> 1000 nM,> 1 µM,> 1 µM,> 1 µM,> 1000 nM,> 1000 nM
CS(=O)(=O)CCNCc1ccc(-c2ccc3ncnc(Nc4ccc(OCc5cccc(F)c5)c(Cl)c4)c3c2)o1 [Lapatinib],–,> 1 µM,89.4 nM,> 1 µM,> 1 µM,113 nM,0,0,0,0,1.43,4,0,11.6,0,0,8.29,12.2,0.567,0,12.8,> 1 µM,> 1000 nM,–,0.0659 µM,> 1 µM,> 1 µM,> 1000 nM,82.4 nM
